Structures are written as SMILES.

The EC50 is the concentration giving half of the maximal effect.

This experiment can be described thus: compounds inducing NF-kB luciferase expression – cell-based, SH-SY5Y, dose response (AID 1241). Particulars: SH-SY5Y NF-kB promoter luciferase reporter, fold induction.
Turning to `O=C(NCCSc1ccccn1)c1ccc(Cl)cc1`, the EC50 is 2700 nM. `C(=N\Nc1nc(-c2ccccc2)cs1)/c1ccco1`: the EC50 is 1700 nM. With `CN(C)c1ccc(C(=O)c2ccc(N(C)C)c3ccccc23)cc1` the figure was 221 nM; with `CC(C)c1cc(C(=O)Nc2ccc3c(c2)OCO3)no1`, 3280 nM.

With `CC(=O)c1c(C)[nH]c(C(=O)Nc2ccc3c(c2)OCCO3)c1C`, the EC50 is 5260 nM. `O=C(Nc1nc2ccc(F)cc2s1)c1cccs1`: the EC50 was 4570 nM.

Regarding `O=C(Nc1ccn(Cc2ccccc2)n1)c1cccc(F)c1`, the EC50 is 15100 nM. As for `Nc1ccccc1C(=O)OCCOc1ccccc1`, the EC50 is 910 nM. With `Clc1ccccc1Nc1nc(-c2cccnc2)cs1` the figure was 1860 nM. Regarding `CC(C)Oc1cc(O)c2c(=O)c(-c3ccc(O)cc3)coc2c1`, the EC50 was 4520 nM. Then `CN(C)c1ccc(/C=c2\sc3n(c2=O)CCCN=3)cc1`, with 11600 nM. Then `O=C(/C=C/Nc1ccc(F)c(F)c1)c1ccc(Br)cc1`, with 3910 nM.

In the case of `O=C(Nc1nc2ccccc2s1)c1ccc2c(c1)OCO2`, the EC50 is 138 nM.

Turning to `COc1ccc(/C=C2\SC(=O)N(CCNC(=O)C3CC4C=CC3C4)C2=O)cc1` (stereo unspecified), the EC50 is 4140 nM. With `Nc1nn(-c2ccccc2)c(N)c1N=Nc1ccc2c(c1)OCO2`, the EC50 is 1600 nM.

For the molecule `Cc1c(C(=O)NC2=NCCS2)oc2ccccc12`, the EC50 was 1030 nM. For the molecule `Nc1nn(-c2cccc(F)n2)cc1-c1ccc(Cl)cc1`, the EC50 was 675 nM. Turning to `N#C/C(=C\c1ccc(OCc2ccc(C(=O)O)cc2)cc1)C(=O)N1CCOCC1`, the EC50 was 12100 nM. With `CCCCNc1ncnc2c1cnn2-c1ccc(Cl)cc1` the figure was 7760 nM; with `COc1cccc(/C=C/C(=O)Nc2ccc3c(c2)OCCO3)c1`, 3940 nM. Then `O=C(N=Nc1c(O)[nH]c2ccccc12)c1cccs1`, with 1480 nM; and `O=C(Nc1ccc(N2CCCC2)c(Cl)c1)c1ccco1`, with 1680 nM; and `S=C(c1ccc(-c2ccc(Cl)c(Cl)c2)o1)N1CCOCC1`, with 5190 nM. Regarding `CCN(CC)c1ccc(NC(=O)c2ccccc2F)cc1`, the EC50 was 7390 nM.

`CC(C)N=C1NN=C(c2ccc(Cl)c(Cl)c2)CS1`: the EC50 is 1420 nM. Then `O=C(Nc1cnc2ccccc2c1)c1ccco1`, with 1380 nM. Then `CCN(CC)C(=O)c1sc2nc(-c3ccccc3)ccc2c1N`, with 3090 nM; and `O=C(OCC(=O)c1cccs1)c1ccccc1`, with 12600 nM; and `Cc1nc2ccc(-c3nc4ccccc4o3)cc2[nH]1`, with 3300 nM. With `Cc1ccc(Cc2cnc(NC(=O)c3cccs3)s2)cc1` the figure was 4960 nM; with `Cc1ccsc1C(=O)Nc1ccc2c(c1)OCCO2`, 3080 nM; with `Nc1ccc(/C=C/C(=O)c2cccs2)cc1`, 8720 nM. `COc1ccc(OCc2cccc(C(=O)O)c2)cc1`: the EC50 is 964 nM. With `COc1ccc(-c2cn3ccc4ccccc4c3n2)cc1` the figure was 716 nM; with `O=C(Nc1ccccn1)c1ccc2ccccc2n1`, 17200 nM; with `Clc1ccc(CSc2nc3ccncc3[nH]2)cc1`, 6940 nM. With `O=c1oc2ccccc2cc1-c1nnc(NCc2ccco2)s1` the figure was 1330 nM; with `c1ccc2sc(NN=C3CCCC3)nc2c1`, 5210 nM. With `O=C(Nc1ccc(N2CCCC2)c(Cl)c1)c1cccs1` the figure was 1510 nM; with `Cc1ccc(N=Nc2c(N)nn(-c3ccccc3)c2N)cc1`, 10000 nM; with `O=S(=O)(c1ccc(Cl)cc1)c1snnc1-c1ccccc1`, 2330 nM.

Consider `c1ccc(-c2cnc(-c3ccccc3)nc2)cc1`, for which the EC50 was 868 nM. With `CC(C)CC(=O)Nc1ccc(-c2cn3ccsc3n2)cc1`, the EC50 was 8510 nM. With `CCN(CC)c1ccc(NC(=O)c2ccc(Br)o2)cc1` the figure was 23900 nM; with `CCCOc1ccc(C(=O)NCCc2ccccc2)cc1`, 648 nM; with `Cc1ccc(/C=C(\C#N)c2nc3ccccc3[nH]2)s1`, 637 nM. With `Cc1ccccc1-c1cc(-c2ccccc2O)n[nH]1` the figure was 18000 nM.

With `c1ccc2sc(-c3ccc4c(c3)OCO4)nc2c1`, the EC50 is 868 nM. With `CCCCOc1ccc(-c2csc(N)n2)cc1[N+](=O)[O-]` the figure was 14100 nM; with `CN(C)C(=S)Nc1nc2ccccc2s1`, 15100 nM; with `COc1cccc(-c2nc3cc(C)ccc3o2)c1`, 1050 nM.

Take `Cn1/c(=N/N=C/c2ccccn2)sc2ccccc21`: the EC50 was 6330 nM. Turning to `COc1ccc2c(c1)CC/C2=N\OC(=O)c1cccc(C)c1`, the EC50 was 2060 nM. Consider `Oc1c(-c2cc(-c3ccco3)[nH]n2)ccc2ccccc12`, for which the concentration for a half-maximal effect (EC50) is 5560 nM. For `COc1ccc(-n2ncc3c(NCC(C)C)ncnc32)cc1`, the EC50 was 1190 nM. For `O=C(/C=C\Nc1ccc2c(c1)OCO2)c1ccc2c(c1)OCO2`, the EC50 was 996 nM. As to `O=C(/C=C\c1ccccc1)Nc1nccs1`, the EC50 was 1070 nM. As to `O=C(c1cnn(-c2ccc(Cl)cc2)c1)c1ccccc1O`, the EC50 was 1720 nM. Then `CCOC(=O)c1sc(NC(=O)Nc2ccc(F)cc2)nc1C`, with 2670 nM. Then `Cc1ccc(-c2nc3ccc([N+](=O)[O-])cc3[nH]2)cc1`, with 577 nM; and `Oc1ccc(-c2csc(Nc3ncccn3)n2)cc1`, with 3440 nM; and `CC(C)Oc1ccc(C(=O)NC2=NCCS2)cc1`, with 1870 nM.

As to `CCCCCc1ccc(-c2ccc(C(=O)O)cc2)nc1`, the EC50 was 1410 nM. Then `Cc1ccc(OCCSc2ncccn2)c(C)c1`, with 5420 nM. Then `Cn1ccc(C(=O)Nc2ccc(Br)cc2Br)n1`, with 29500 nM. With `Cc1nc(Sc2nnnn2C)c2c3c(sc2n1)CCC3` the figure was 1590 nM; with `COC(=O)c1ccc(NC(=O)C(=O)c2cccn2C)cc1`, 1710 nM. In the case of `O=C(CCCc1ccccc1)N1CCc2ccccc21`, the EC50 is 2570 nM. For the molecule `Cc1ccc(NC(=O)N2CCc3ccccc32)cc1C`, the EC50 was 361 nM. Turning to `O=C(/C=C/Nc1ccc(F)c(F)c1)c1cccs1`, the EC50 was 963 nM.

For `CCCCc1ccc(NC(=O)c2cnccn2)cc1`, the EC50 was 250 nM. As to `COc1cccc(/C=N/Nc2nccnc2Cl)c1O`, the EC50 is 2170 nM. With `CC(C)c1ccc(-n2cnn(-c3ncccc3[N+](=O)[O-])c2=O)cc1` the figure was 1590 nM; with `Cc1cccnc1Nc1nc(-c2ccc(O)cc2)cs1`, 8130 nM. `Cn1c(-c2ccco2)nc2cc3ccccc3cc21`: the EC50 was 816 nM. With `Cc1ccc(CN=C2Nc3ccccc3CS2)cc1` the figure was 1190 nM. With `COc1cccc(/C=C/C(=O)c2ccc[nH]2)c1` the figure was 14900 nM; with `Cc1ccc(C(=O)Nc2ncc(Cc3ccc(F)cc3)s2)o1`, 6160 nM. Then `Fc1cccc(C2NN=C(c3ccccc3)S2)c1` (stereo unspecified), with 9650 nM; and `Clc1ccc(-c2nc3n(n2)Cc2ccccc2-3)cc1`, with 343 nM; and `O=C(Nc1ccc2oc(-c3ccccc3F)nc2c1)c1ncn[nH]1`, with 2110 nM. Consider `Cc1ccc2nc(/C=C/c3cccc(F)c3)ccc2c1`, for which the EC50 is 3070 nM.

With `N/C(=N\OC(=O)COc1ccc(Br)cc1Cl)c1ccccn1`, the EC50 is 1060 nM. Consider `Nc1cccn2c(-c3ccc(Cl)cc3)cnc12`, for which the EC50 was 3630 nM. With `O=C1C(c2cc(=O)c3ccccc3[nH]2)=C(O)c2ccccc21` the figure was 4980 nM. Take `CCOC(=O)c1sc(=NC(=O)c2ccccc2)n(C)c1C`: the EC50 was 2230 nM. With `CCS/C(N)=N/N=C/c1cc(C)ccc1O` the figure was 3310 nM. Then `Cc1cccc(Nc2nc(-c3ccccn3)cs2)n1`, with 1190 nM; and `NS(=O)(=O)c1cc(C(=O)OCC(=O)c2ccc3c(c2)OCCO3)ccc1Cl`, with 3470 nM; and `Cc1ccc(-c2nc(-c3ccccc3)no2)cc1`, with 925 nM. For the molecule `COc1ccccc1/C=C/C(=O)Nc1ccc2c(c1)CCC2`, the EC50 was 5640 nM. As for `CSc1ccc(/C=N/Nc2ccc(Cl)c(C(=O)O)c2)cc1`, the EC50 is 5910 nM. `COc1ccc(/C=C/c2nc(-c3ccccc3O)n[nH]2)cc1`: the EC50 was 2920 nM. In the case of `COc1ccc(N2C(=S)NC3N2C(=S)NC3(C)c2ccccc2)cc1` (stereo unspecified), the EC50 was 8370 nM. For `c1ccc(N2CCN(c3cnc4ccccc4n3)CC2)cc1`, the 50% effective concentration (EC50) is 1610 nM.

For the molecule `CC(C)c1ccc(/C=C/c2ccc(=O)n(C)n2)cc1`, the EC50 is 8700 nM. Then `Cc1ccc(-c2cc(-c3ccccc3Cl)[nH]n2)c(O)c1`, with 7150 nM. As for `COc1ccc(-c2cn3cc(C)ccc3n2)cc1Br`, the EC50 was 327 nM. Then `COc1ccc2nc(Nc3ccccc3OC)sc2c1`, with 2240 nM; and `O=C(Nc1ccc(OC(F)F)c(Cl)c1)c1ccccn1`, with 6280 nM. Regarding `COc1ccc2nc3oc(C(=O)N4CCCCC4)cc3cc2c1`, the EC50 was 5270 nM. With `O=C(Nc1ccc2c(c1)CCC2)c1ccccc1`, the EC50 is 1840 nM. Turning to `COc1cccc(-c2cc(C(=O)N3CCCCCC3)no2)c1`, the 50% effective concentration (EC50) is 1990 nM. Then `COc1ccc2c(c1)OC/C(=C/c1cccs1)C2=O`, with 5520 nM; and `O=C(NCc1ccco1)c1ccc([N+](=O)[O-])o1`, with 6890 nM. With `O=C(/C=C/c1ccccc1Cl)Nc1cccc(O)c1` the figure was 1120 nM; with `O=C(Nc1ccccn1)c1sc2cccc(F)c2c1Cl`, 1760 nM; with `Cc1ccc2nc(NC(=S)NC(=O)c3cccs3)sc2c1`, 2230 nM.

With `Cc1occc1C(=O)N/N=C/C(Br)=C/c1ccccc1`, the EC50 is 1640 nM. Then `Cc1ccc(NC(=O)N2CCC(c3ccccc3)C2)cc1C` (stereo unspecified), with 5300 nM; and `CC(=O)Nc1ccc2oc(-c3cc(F)c(F)cc3Cl)nc2c1`, with 817 nM; and `Clc1cccc(Cl)c1/C=C/c1nc2ccccc2[nH]1`, with 1190 nM. Then `Cc1ccc(N/C=C/C(=O)c2cccs2)cc1C`, with 270 nM. As for `COc1ccc2c(c1OC)C(=O)OC2Nc1nc(-c2ccc(-c3ccccc3)cc2)cs1` (stereo unspecified), the 50% effective concentration (EC50) is 2980 nM. In the case of `Cc1cc(C=C2C(=O)c3ccccc3C2=O)c(C)n1C`, the EC50 was 2790 nM. As to `COc1ccc(NC(=O)C2=Cc3ccccc3OC2)cc1`, the EC50 was 800 nM.

Source of the values: PubChem BioAssay AID1241 (SRMLSC, 2008).
